Source: ChEMBL document CHEMBL3867482, “Design and synthesis of water soluble β-aminosulfone analogues of SCH 900229 as γ-secretase inhibitors” (Bioorg Med Chem Lett, 2016)
≈ marks a conversion by molar mass, not a printed value.

Assays:
[1] = Selectivity ratio of IC50 for human gamma secretase PS2 (1 to 467 residues) expressed in baculovirus infected sf9 cells co-expressing aph-1a to IC50 for gamma secretase PS1 (1 to 448 residues) expressed in baculovirus infected sf9 cells co-expressing aph-1a
[2] = Kinetic solubility of compound; format: physicochemical; settings: read-out: Kinetic_solubility
[3] = Inhibition of gamma-secretase in HEK293 cell membranes expressing human APP Swedish/London double mutant assessed as reduction in amyloid beta 40 formation after 1 hr by electrochemiluminescence based immunoassay
[4] = Clearance in rat hepatocytes assessed per million cells by HPLC/atmospheric pressure chemical ionization/MS analysis; format: ADME, cell-based, Hepatocyte; settings: read-out: CLH
[5] = molecular target: T1, Cytochrome P450 3A4 (Homo sapiens, UniProt P08684); test: Inhibition of CYP3A4 in human liver microsomes after 30 secs by LC/MS/MS analysis; format: ADME
T1 sequence (P08684 whole entry): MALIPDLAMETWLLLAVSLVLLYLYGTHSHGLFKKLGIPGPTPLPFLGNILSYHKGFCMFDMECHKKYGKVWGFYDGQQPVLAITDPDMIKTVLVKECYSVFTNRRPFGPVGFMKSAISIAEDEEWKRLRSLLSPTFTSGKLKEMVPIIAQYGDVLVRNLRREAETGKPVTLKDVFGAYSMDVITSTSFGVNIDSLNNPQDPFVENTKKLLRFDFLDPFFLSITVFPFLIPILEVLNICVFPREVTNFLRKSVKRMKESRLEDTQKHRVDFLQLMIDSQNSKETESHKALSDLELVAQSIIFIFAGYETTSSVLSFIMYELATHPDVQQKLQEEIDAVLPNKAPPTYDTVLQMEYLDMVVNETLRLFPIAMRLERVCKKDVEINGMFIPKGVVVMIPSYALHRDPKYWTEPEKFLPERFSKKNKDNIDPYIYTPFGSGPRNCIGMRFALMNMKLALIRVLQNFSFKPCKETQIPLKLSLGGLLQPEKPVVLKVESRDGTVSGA

[6] = Clearance in monkey hepatocytes assessed per million cells by HPLC/atmospheric pressure chemical ionization/MS analysis; format: ADME, cell-based, Macaca mulatta, Hepatocyte; settings: rhesus monkey, read-out: CLH
[7] = molecular target: Cytochrome P450 2D6 (Homo sapiens, UniProt P10635); test: Inhibition of CYP2D6 in human liver microsomes after 30 secs by LC/MS/MS analysis; format: ADME
Chain of Cytochrome P450 2D6 (P10635 whole entry): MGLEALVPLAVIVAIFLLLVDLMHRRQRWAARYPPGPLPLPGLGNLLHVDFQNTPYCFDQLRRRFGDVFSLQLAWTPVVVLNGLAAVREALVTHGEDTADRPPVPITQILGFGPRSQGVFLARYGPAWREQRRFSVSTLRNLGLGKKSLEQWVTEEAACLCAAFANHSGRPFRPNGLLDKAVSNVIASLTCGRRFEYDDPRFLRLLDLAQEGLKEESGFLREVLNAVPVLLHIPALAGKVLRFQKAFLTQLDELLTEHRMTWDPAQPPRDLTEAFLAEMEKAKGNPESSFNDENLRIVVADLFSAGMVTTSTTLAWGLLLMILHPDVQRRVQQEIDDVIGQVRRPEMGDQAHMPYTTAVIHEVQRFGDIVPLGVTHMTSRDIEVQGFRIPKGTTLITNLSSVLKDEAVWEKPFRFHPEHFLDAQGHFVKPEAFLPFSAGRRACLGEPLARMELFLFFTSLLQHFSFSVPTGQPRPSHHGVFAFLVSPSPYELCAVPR

[8] = Clearance in dog hepatocytes assessed per million cells by HPLC/atmospheric pressure chemical ionization/MS analysis; format: ADME, cell-based, Canis lupus familiaris, Hepatocyte; settings: read-out: CLH
[9] = molecular target: T1, Cytochrome P450 3A4; test: Inhibition of CYP3A4 in human liver microsomes preincubated for 30 mins after 30 secs by LC/MS/MS analysis; format: ADME
[10] = molecular target: Cytochrome P450 2C9 (Homo sapiens, UniProt P11712); test: Inhibition of CYP2C9 in human liver microsomes after 30 secs by LC/MS/MS analysis; format: ADME
Chain of Cytochrome P450 2C9 (P11712 whole entry): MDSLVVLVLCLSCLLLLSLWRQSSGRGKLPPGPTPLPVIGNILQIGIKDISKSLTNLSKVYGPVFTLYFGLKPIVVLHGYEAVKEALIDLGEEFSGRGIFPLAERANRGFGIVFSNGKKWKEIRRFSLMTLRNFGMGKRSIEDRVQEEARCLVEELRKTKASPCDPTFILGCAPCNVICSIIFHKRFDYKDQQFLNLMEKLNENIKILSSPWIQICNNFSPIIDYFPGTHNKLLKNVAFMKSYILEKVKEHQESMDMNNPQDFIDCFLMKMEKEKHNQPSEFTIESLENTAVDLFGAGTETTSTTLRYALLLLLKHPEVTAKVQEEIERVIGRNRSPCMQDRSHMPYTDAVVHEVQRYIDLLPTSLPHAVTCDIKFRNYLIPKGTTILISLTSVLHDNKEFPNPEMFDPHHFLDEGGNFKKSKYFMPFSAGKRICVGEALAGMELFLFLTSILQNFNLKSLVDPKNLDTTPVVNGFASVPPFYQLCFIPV

[11] = AUC (0 to 6 hrs) in mouse at 10 mg/kg, po by LC/MS/MS analysis; format: ADME, organism-based; design: time < 6 hr, dose 10 mg/kg, route oral; settings: in vivo
[12] = Ratio of drug level in brain to plasma in mouse at 6 hrs; format: ADME, organism-based; settings: brain and plasma, read-out: BPR
[13] = Clearance in human hepatocytes assessed per million cells by HPLC/atmospheric pressure chemical ionization/MS analysis; format: ADME, cell-based, Hepatocyte; settings: read-out: CLH
[14] = test system: Mus musculus; test: Antialzheimer activity in B6C3F1 mouse assessed as amyloid beta 40 level in cortex at 10 mg/kg, po administered as single dose after 3 hrs relative to control; format: functional
[15] = test system: Mus musculus; test: Antialzheimer activity in B6C3F1 mouse assessed as amyloid beta 40 level in plasma at 10 mg/kg, po administered as single dose after 3 hrs relative to control; format: functional

CCNCCS(=O)(=O)CC[C@@H]1OCC[C@@]2(S(=O)(=O)c3ccc(Cl)cc3)c3c(F)ccc(F)c3OC[C@@H]12 [listing 1 of 2 here]
Ratio IC50 [1]: 18

Cl.NCCS(=O)(=O)CC[C@@H]1OCC[C@@]2(S(=O)(=O)c3ccc(Cl)cc3)c3c(F)ccc(F)c3OC[C@@H]12
solubility kinetic [2]: ≥ 200 µM

O=S(=O)(CCNC1CCC1)CC[C@@H]1OCC[C@@]2(S(=O)(=O)c3ccc(Cl)cc3)c3c(F)ccc(F)c3OC[C@@H]12
IC50 [3]: 0.002 µM

O=S(=O)(CC[C@@H]1OCC[C@@]2(S(=O)(=O)c3ccc(Cl)cc3)c3c(F)ccc(F)c3OC[C@@H]12)CCN1CCC1
Ratio IC50 [1]: 17
IC50 [3]: 0.0016 µM

CCNCCS(=O)(=O)CC[C@@H]1OCC[C@@]2(S(=O)(=O)c3ccc(Cl)cc3)c3c(F)ccc(F)c3OC[C@@H]12 [listing 2 of 2 here]
hepatocyte CLint [4]: 29.1 µL/min/1e6 cells
IC50 [5]: > 20 µM
hepatocyte CLint [6]: 44.6 µL/min/1e6 cells
IC50 [7]: > 20 µM
IC50 [3]: 0.0009 µM
hepatocyte CLint [8]: 10.8 µL/min/1e6 cells
IC50 [9]: 1.4 µM
IC50 [10]: > 20 µM
AUC(0-t) at 6 h [11]: 1360 nM·h
Kp at 6 h [12]: 0.4
hepatocyte CLint [13]: 15.1 µL/min/1e6 cells

Cl.O=S(=O)(CC[C@@H]1OCC[C@@]2(S(=O)(=O)c3ccc(Cl)cc3)c3c(F)ccc(F)c3OC[C@@H]12)C1CNC1
solubility kinetic [2]: > 200 µM

O=S(=O)(CC[C@@H]1OCC[C@@]2(S(=O)(=O)c3ccc(Cl)cc3)c3c(F)ccc(F)c3OC[C@@H]12)C[C@H]1CCCN1
hepatocyte CLint [4]: 12.8 µL/min/1e6 cells
IC50 [5]: > 20 µM
hepatocyte CLint [6]: 28 µL/min/1e6 cells
IC50 [7]: > 20 µM
Activity [14]: -42%
IC50 [3]: 0.001 µM
hepatocyte CLint [8]: 13.6 µL/min/1e6 cells
Activity [15]: -71%
IC50 [9]: 1 µM
IC50 [10]: > 20 µM
AUC(0-t) at 6 h [11]: 2520 nM·h
Kp at 6 h [12]: 0.4

Cl.O=S(=O)(CC[C@@H]1OCC[C@@]2(S(=O)(=O)c3ccc(Cl)cc3)c3c(F)ccc(F)c3OC[C@@H]12)C[C@H]1CCCN1
solubility kinetic [2]: ≥ 200 µM

Cl.O=S(=O)(CC[C@@H]1OCC[C@@]2(S(=O)(=O)c3ccc(Cl)cc3)c3c(F)ccc(F)c3OC[C@@H]12)C[C@@H]1CCCN1
solubility kinetic [2]: ≥ 200 µM

O=S(=O)(CC[C@@H]1OCC[C@@]2(S(=O)(=O)c3ccc(Cl)cc3)c3c(F)ccc(F)c3OC[C@@H]12)CC1=NCCN1
hepatocyte CLint [4]: 25.9 µL/min/1e6 cells
IC50 [5]: 13.2 µM
hepatocyte CLint [6]: 32 µL/min/1e6 cells
solubility kinetic [2]: 20 µM (≈ 11.5 µg/mL)
IC50 [7]: > 20 µM
IC50 [3]: 0.0059 µM
hepatocyte CLint [8]: 20.1 µL/min/1e6 cells
Activity [15]: -86%
IC50 [9]: 1 µM
IC50 [10]: > 20 µM
AUC(0-t) at 6 h [11]: 57 nM·h
hepatocyte CLint [13]: 13.7 µL/min/1e6 cells

O=C(O)CS(=O)(=O)CC[C@@H]1OCC[C@@]2(S(=O)(=O)c3ccc(Cl)cc3)c3c(F)ccc(F)c3OC[C@@H]12
Ratio IC50 [1]: 22
solubility kinetic [2]: > 200 µM
IC50 [3]: 0.0027 µM
Activity [15]: 47%

O=S(=O)(CC[C@@H]1OCC[C@@]2(S(=O)(=O)c3ccc(Cl)cc3)c3c(F)ccc(F)c3OC[C@@H]12)C1CNC1
IC50 [3]: 0.0013 µM
Activity [15]: -15%

O=S(=O)(CC[C@@H]1OCC[C@@]2(S(=O)(=O)c3ccc(Cl)cc3)c3c(F)ccc(F)c3OC[C@@H]12)CCN1CCCC1
Ratio IC50 [1]: 13
IC50 [3]: 0.0011 µM

O=S(=O)(CC[C@@H]1OCC[C@@]2(S(=O)(=O)c3ccc(Cl)cc3)c3c(F)ccc(F)c3OC[C@@H]12)CCN1CC[C@@H](O)C1
Ratio IC50 [1]: 12
IC50 [3]: 0.0006 µM

O=S(=O)(CC[C@@H]1OCC[C@@]2(S(=O)(=O)c3ccc(Cl)cc3)c3c(F)ccc(F)c3OC[C@@H]12)[C@@H]1CCNC1
hepatocyte CLint [4]: 13.9 µL/min/1e6 cells
IC50 [5]: 6.1 µM
hepatocyte CLint [6]: 38.8 µL/min/1e6 cells
IC50 [7]: > 20 µM
Activity [14]: -73%
IC50 [3]: 0.0051 µM
hepatocyte CLint [8]: 17.9 µL/min/1e6 cells
Activity [15]: -90%
IC50 [9]: 3.7 µM
IC50 [10]: > 20 µM
AUC(0-t) at 6 h [11]: 1170 nM·h
Kp at 6 h [12]: 2
hepatocyte CLint [13]: 14.5 µL/min/1e6 cells

Cl.O=S(=O)(CC[C@@H]1OCC[C@@]2(S(=O)(=O)c3ccc(Cl)cc3)c3c(F)ccc(F)c3OC[C@@H]12)[C@H]1CCNC1
solubility kinetic [2]: ≥ 200 µM

Cl.O=S(=O)(CC[C@@H]1OCC[C@@]2(S(=O)(=O)c3ccc(Cl)cc3)c3c(F)ccc(F)c3OC[C@@H]12)[C@@H]1CCNC1
solubility kinetic [2]: ≥ 200 µM

O=S(=O)(CC[C@@H]1OCC[C@@]2(S(=O)(=O)c3ccc(Cl)cc3)c3c(F)ccc(F)c3OC[C@@H]12)CCN1CC[C@H](O)C1
Ratio IC50 [1]: 12
IC50 [3]: 0.0008 µM
